Data published in patent US20020115724A1, “Methods and agents for inhibiting protein aging” (priority 1985, published 2002).
Structures can show the parent of a compound that is named as a salt. Where two headings read alike, the source gives them in different places.

What was measured:
[1] = test system: diabetic New Zealand white rabbits; experiment: Red blood cell deformability in long-term diabetic rabbits; assay type: in vivo, rabbit; settings: for Red Blood Cell Deformability Index: diabetic rabbits, 100 mg/kg/day oral gavage
Text: New Zealand white rabbits, with induced, long-term diabetes (12.7±3.2 months) are used to study the effects of a test compound on red blood cell (RBC) deformability. If glucose-mediated crosslinking of red blood cell components results in less deformable, more rigid membrane, then therapy should prevent this change in new red cells. Red blood cells already in existence at the initiation of therapy would be unaffected; because RBCs are replaced frequently newly formed red blood cells would be exposed to the therapy. […] The test compound is administered at a rate of 100 mg/kg/day by oral gavage.
The deformability index (DI) (filtration rate of buffer/filtrate rate of suspended RBCs; hematocrit=4.0%) is used as a measure of RBC deformability. Buffer and suspended RBCs are filtered through a 3 μ micropore membrane (Nucleopore Corp., Pleasanton, Calif.) with a pressure of […] at 37° C. A reference range for RBC deformability (2.67 to 4.84, mean 4.02±0.69) and % hemoglobin glycosylation (1.7 to 3.96, mean 2.60±0.70) is obtained from a group of normal New Zealand white rabbits (n=14), matched for age, sex and weight.
The results are given in Table III, below for diabetic New Zealand white rabbits dosed with 100 mg/kg/day aminoguanidine.

calf skin collagen [2] = experiment: Calf skin collagen crosslinking by glucose: cyanogen bromide fragments on SDS-polyacrylamide gel; assay type: biochemical; settings: 140 mM glucose, 200 mM aminoguanidine, 3 weeks, 35° C.; Lane B
Method: (§1) Collagen from samples of calf skin were extracted into acetic acid and then precipitated with 0.6 M sodium chloride. These procedures removed from the solution skin collagen that was already permanently crosslinked or denatured. Native collagen fibrils were reformed by dialysis against 0.02M phosphate buffer, and these were incubated for 3 weeks at 35° C. in the presence of 140 mM glucose and with or without 200 mM aminoguanidine. After incubation, the samples were dialyzed and the degree of crosslinking was determined by two methods. First, the amount of reacted collagen which could be solubilized by treatment in 2% sodium dodecyl sulfate at 100° C. was measured.
The reacted collagen was further examined by cleaving it into fragments using cyanogen bromide treatment in formic acid, the resulting protein fragments were separated by size by sodium dodecyl sulfate-polyacrylamide gel electrophoresis. After electrophoresis, the protein fragments were identified in the gel using silver staining.
Referring to FIG. 3B, Lane C contains collagen that was incubated with glucose alone. It is noted that a large amount of high molecular weight fragments form a continuous band at the top of the gel, indicating a large range of high molecular weight fragments. Some of this material could not enter the gel and is present in the […] stacking gel above the gradient gel. […]

calf skin collagen [3] = experiment: Calf skin collagen crosslinking by glucose: solubilization in 2% sodium dodecyl sulfate; assay type: biochemical; settings: 140 mM glucose, 200 mM aminoguanidine, 3 weeks, 35° C.
Method: As a further evaluation of the compound aminoguanidine as a model for the prevention of protein trapping, crosslinking and formation of advanced glycosylation end products, the following experiment using calf skin collagen was performed. Collagen is a protein in the skin responsible for the suppleness of skin, and crosslinking leads to wrinkling, decreased elasticity, reduced susceptibility to proteolytic degradation, and other changes.
as §1

rats = settings: hydrochloride, cited from earlier work; for toxicity in animals: in words
normal and diabetic rats [4] = experiment: Aorta advanced glycosylation endproduct content (specific fluorescence of collagen); assay type: in vivo, rat; settings: for Advanced glycosylation products: aorta, 25 mg/kg daily i.p., 16 weeks
Method: (§2) The experiment consisted of giving both normal and diabetic rats daily intraperitoneal doses of the agent aminoguanidine hydrochloride at a dose of 25 mg per kilogram of body weight, for a period of 16 weeks. […] Diabetes was induced prior to drug therapy with a single dose of streptozotocin. Control animals, both diabetic and normal, received no drug.
Aorta samples from the same groups of animals described in Example IV above were subjected to analysis for Advanced Glycosylation Endproducts (A.G.E.) content and solubility.
Aortas were finely minced with dissecting scissors, delipidated with 5 mL of chloroform: methanol (2:1), washed 5 times with buffer, and divided into aliquots for the following assessments of cross-linking:
(A) Specific fluorescence of collagen after complete solubilization by proteinase k and pepsin.
After treatment for the prescribed period, soluble material was separated from insoluble material by centrifugation (50,000× g, 1 hour), and all fractions were lyophilized and hydrolyzed in 6M HCl for determination of total hydroxyproline.

[5] = test system: streptozotocin-diabetic rat; settings: streptozotocin-diabetic rat model; cited from earlier work
gelatin (collagen) = experiment: Protein trapping: radioiodinated albumin bound to gelatin (collagen) agarose beads with glucose-6-phosphate; assay type: biochemical; settings: agent 200 mN, 400 mN glucose-6-phosphate, two weeks, 37° C.
Text: To more precisely measure the effect of the agents on the inhibition of protein crosslinking, an assay system was devised to measure the extent of in vitro binding of a soluble protein to an insoluble protein. This assay system mimics the events which occur in tissues in which serum proteins become bound to proteins in extravascular matrix and which lead to accumulation of protein and narrowing of vessel lumina in several other tissues. These events in vivo give rise to kidney disease and atherosclerotic disease, and lead to the pathologies associated with diabetes and aging.
To measure protein trapping (i.e., binding or accumulation), gelatin (collagen) was coupled to activated agarose beads (Affigel 10, Bio-Red Laboratories) by routine methods. After coupling, all remaining active sites on the beads were quenched by reaction with glycine ethyl ester.
The beads were incubated for two weeks with bovine serum albumin and 400 mN glucose-6-phosphate, a more reactive form of glucose which forms early glycosylation products with proteins more rapidly than does glucose. […] The bovine serum albumin was radioiodinated so that the amount which became bound to the beads could be measured. […]
After a two-week incubation of the reaction mixtures at 37° C., the beads were washed extensively with chaotropic agents and the covalently bound radioactivity was determined. […]

normal and diabetic rats [6] = experiment: Cross-linking of lipoprotein to aorta collagen, ELISA for apolipoprotein-B; assay type: in vivo, rat; settings: 25 mg/kg daily i.p., 16 weeks
Method: as §2
Aorta samples from the same group of animals described in Example IV above, were subjected to analysis for cross-linking of lipoprotein to collagen, using an enzyme immunoassay. A standard ELISA procedure was employed, using antiserum to rat apoliproprotein-B raised in rabbits, peroxidase-labeled anti-rabbit antibody, and standard chromogenic reagents to detect quantity of antibody bound.

N=C(N)NN [aminoguanidine hydrochloride]
Red Blood Cell Deformability Index ([1]; 0 weeks of dosing (baseline)): 18.32 ± 6.03
Red Blood Cell Deformability Index ([1]; 4 weeks of dosing): 7.17 ± 3.12
Red Blood Cell Deformability Index ([1]; 8 weeks of dosing): 6.83 ± 2.97
Red Blood Cell Deformability Index ([1]; 12 weeks of dosing): 4.64 ± 1.58
Red Blood Cell Deformability Index ([1]; 16 weeks of dosing): 4.44 ± 1.33
Red Blood Cell Deformability Index ([1]; 20 weeks of dosing): 4.14 ± 1.06
effect on diabetes-induced increased deformability index ([1]; long-term diabetic rabbits, delayed treatment): to normal after 12 weeks
RBC deformability index ([1]; separate experiment, daily administration from the time of induction of diabetes): never became abnormal
high molecular weight fragments after cyanogen bromide cleavage (gel) (calf skin collagen [2]): no large amount of high molecular weight material
solubility of reacted collagen in 2% sodium dodecyl sulfate at 100° C. (calf skin collagen [3]): as soluble as collagen incubated in buffer alone
toxicity in animals (rats): low toxicity in animals
toxicity in animals (rats; listed as hydrochloride derivative): very low toxicity
LD50 (rats; subcutaneously, rats, listed as hydrochloride derivative): 2984 mg/kg
Advanced glycosylation products (normal and diabetic rats [4]; diabetic rats): 4.5 ± 0.1 Specific fluorescence per mg hydroxyproline
Advanced glycosylation products (normal and diabetic rats [4]; normal rats): 2.8 ± 0.1 Specific fluorescence per mg hydroxyproline
level of fluorescent advanced glycosylation products in aortic tissue relative to untreated normal rats (normal and diabetic rats [4]; treated diabetic rats vs untreated normal rats): 1.3 times
increased glomerular basement membrane thickness [5]: prevented
amount of protein trapping (radiolabeled albumin bound to collagen beads) (gelatin (collagen)): greatly reduced
LIPOPROTEIN BOUND PER MG COLLAGEN (normal and diabetic rats [6]; diabetic rats): 0.64
LIPOPROTEIN BOUND PER MG COLLAGEN (normal and diabetic rats [6]; normal rats): 0.53
